US9243035B2, “Peptides effective in the treatment of conditions requiring the removal or destruction of cells” (NYMOX CORPORATION, priority 2013, dated 2016)
No end group written: not given here.

How the values were obtained:
rat prostate = assay: Intraprostatic infusion of peptide in rats, histology and prostate volume after 7 days; type: in vivo, Sprague-Dawley rats; parameters: key to Histological Changes of Cell Death at 7 Days: −: Absent; +: Present, Minimal; ++: Present, Moderate; +++: Present, Moderate and Diffuse; ++++: Present, Diffuse and Extensive; conditions: for histological effect on prostate at sites of injection: rat prostate, 7 days; for Histological Changes of Cell Death at 7 Days / reduction in prostate volume compared to controls: rat; for Histological Changes of Cell Death at 7 Days: 7 days after intraprostatic injection; for reduction in prostate volume compared to controls: intraprostatic, 300 μl of 1 mg/mL in PBS pH 7.4, sacrificed after 7 days, average
Procedure: Seven normal male 300 gram weight Sprague-Dawley rats were given general anesthesia and given peptide NYMAP1385 by intraprostatic infusion. The injections consisted of 300 μl of peptide NYMAP1385 1 mg/mL in PBS pH 7.4. […] Rats were painlessly sacrificed after 7 days. Prostate glands were dissected, fixed in 10% buffered formalin for 24 hours, embedded in paraffin, sectioned, and stained with H & E. For each animal the entire prostate gland was embedded and sectioned. All stained sections were examined histologically. For each animal the entire prostate gland was embedded and sectioned. All stained sections were examined histologically and measured. For each prostate at least 2 histological sections were examined, and for each histological section two cross-sectional diameters (D) at 90° from each other were measured (total of ≧4 measurements per prostate). The mean diameter from these measurements for each prostate was used to estimate volume according to V=4/3*π*(D/2)^3
Eight normal male 300 gram Sprague-Dawley rats were injected in the prostate as in the above Example 2, except they were injected with peptide NYMAP13134. Rats were painlessly sacrificed after 7 days and their prostate glands were examined as in Example 2. For each animal the entire prostate gland was embedded and sectioned. All stained sections were examined histologically and measured. For each prostate at least 2 histological sections were examined, and for each histological section two cross-sectional diameters (D) at 90° from each other were measured (total of ≧4 measurements per prostate). The mean diameter from these measurements for each prostate was used to estimate volume according to V=4/3*π*(D/2)^3
(§1) Histological changes were assessed on the following scale: −Absent • +Present, Minimal • ++Present, Moderate • +++Present, Moderate and Diffuse • ++++Present, Diffuse and Extensive

[1] = system: tissue at sites of injection (liver, prostate, extremity skeletal muscle); assay: Injection of peptide into liver, prostate and extremity skeletal muscle of rats, histopathology and prostate volume at 72 hours; type: in vivo, Sprague-Dawley male rats; parameters: key to Histological Changes of Cell Death at 72 Hours: −: Absent; +: Present, Minimal; ++: Present, Moderate; +++: Present, Moderate and Diffuse; ++++: Present, Diffuse and Extensive; conditions: rat; for reduction in prostate volume compared to controls: 100 to 400 μL of 1 mg/mL in saline, sacrificed at 72 hours, average; for Histological Changes of Cell Death at 72 Hours: 72 hours after injection; for histopathological effect on tissue at sites of injection: liver, prostate, muscle, 72 hours
Procedure: After open laparotomy under general anesthesia, 8 normal 3 month old Sprague-Dawley male rats were injected in liver and in prostate, and in extremity skeletal muscle, with peptide NYMAP1385 in saline in quantities of 100 to 400 μL at a concentration of 1 mg/mL delivered from plastic syringes through stainless steel 26 gauge needles.
The individual foci of infiltration were excised, fixed in 10% formalin, embedded in paraffin, and stained and examined by standard histopathological methods. For each animal the entire prostate gland was embedded and sectioned. All stained sections were examined histologically and measured. For each prostate at least 4 histological sections were examined, and for each histological section two cross-sectional diameters (D) at 90° from each other were measured (total of ≧4 measurements per prostate). The mean diameter from these measurements for each prostate was used to estimate volume according to V=4/3*π(D/2)^3 […]
as §1

Sequence	histological effect on prostate at sites of injection (rat prostate)	Histological Changes of Cell Death at 7 Days (rat prostate)	reduction in prostate volume compared to controls (rat prostate)	reduction in prostate volume compared to controls [1]	Histological Changes of Cell Death at 72 Hours [1]	histopathological effect on tissue at sites of injection [1]
FHDLKKHCIK [NYMAP13134]	significant cell loss and atrophy in the prostate	++++	75.2%	72.5%	+++	cell death and necrosis of tissue at the injection sites
IDLLQGRTRNRC [NYMAP1385]	necrosis of tissue at the injection sites with loss of glandular epithelium, flattening and atrophy	++	44.8%	57.8%	++++	variable amounts of apoptosis and necrosis of tissue at the injection sites
